Test results: US10131663B2, “Chemical compounds” (AstraZeneca AB, priority 2016, dated 2018)
In brackets after ≈: the same amount, converted by molar mass.

Key:
[1] = target: recombinant human Estrogen Receptor alpha ligand binding domain (ER alpha-LBD (GST)) (Homo sapiens (Human), UniProt P03372); assay: ERα binding assay (LanthaScreen TR-FRET competition); conditions: TR-FRET, displacement of Fluormone ES2
Summary of the method: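 Competition binding to GST-tagged human ERα ligand-binding domain, read by LanthaScreen TR-FRET: Tb-anti-GST antibody labels the receptor and compounds displace a fluorescent tracer, lowering the signal. IC50 was taken from dose-response curve fitting.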

[2] = Human plasma protein binding (equilibrium dialysis); format: in vitro ADME; conditions: dialysis 18 hours
Summary of the method: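 Fraction unbound (fu %) in human plasma, from LC/MSMS of plasma and buffer sides (7-point plasma calibration) after 18 h rapid equilibrium dialysis. Single determinations, with compounds pooled up to 10 per plasma pool.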

[3] = Thermodynamic solubility (shake-flask); format: physicochemical; conditions: aqueous phosphate buffer, 25 °C, pH 7.4, aqueous buffer, thermodynamic from solid, aqueous phosphate buffer pH 7.4, 24 hours
Summary of the method: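 Shake-flask method starting from 10 mM DMSO stocks, which are dried before use. Residue equilibrated 24 h at 25° C. in aqueous phosphate buffer, pH 7.4. Dissolved fraction separated and quantified by UPLC/MS/MS, with QC samples in each run.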

[4] = log D (shake flask, 1-octanol/aqueous buffer); format: physicochemical
Summary of the method: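 Distribution between 1-octanol and aqueous buffer at pH 7.4 was measured by shake flask, with compounds run in mixtures of ten. Relative concentrations in each phase were quantified by UPLC with quantitative MS. Caffeine served as a low-log D QC sample in all runs.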

[5] = target: estrogen receptor (ERα) in CAMA-1 cells (Homo sapiens (Human), UniProt P03372); assay: Western blotting assay, ER down-regulation in CAMA-1; format: cell-based; conditions: 100 nM compound, 48 h, normalised to 100 nM fulvestrant
Chain of estrogen receptor (ERα) in CAMA-1 cells (P03372 whole entry): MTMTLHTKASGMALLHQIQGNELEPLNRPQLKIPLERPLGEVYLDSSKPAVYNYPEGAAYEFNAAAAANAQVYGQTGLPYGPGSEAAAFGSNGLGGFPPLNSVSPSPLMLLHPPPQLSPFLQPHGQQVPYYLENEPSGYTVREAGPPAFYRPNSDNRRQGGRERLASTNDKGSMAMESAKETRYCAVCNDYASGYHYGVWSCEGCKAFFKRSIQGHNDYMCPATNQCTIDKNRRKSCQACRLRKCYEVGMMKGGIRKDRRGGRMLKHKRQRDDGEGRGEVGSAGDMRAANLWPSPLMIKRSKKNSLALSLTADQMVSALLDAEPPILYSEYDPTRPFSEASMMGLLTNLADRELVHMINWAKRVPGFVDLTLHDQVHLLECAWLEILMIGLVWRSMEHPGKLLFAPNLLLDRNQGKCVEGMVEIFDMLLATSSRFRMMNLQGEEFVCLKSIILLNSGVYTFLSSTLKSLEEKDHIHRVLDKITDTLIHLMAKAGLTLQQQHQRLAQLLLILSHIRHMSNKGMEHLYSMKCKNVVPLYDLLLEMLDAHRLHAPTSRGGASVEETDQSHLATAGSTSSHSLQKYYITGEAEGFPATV
Experimental: (§1) Cells were incubated with compounds (100 nM) or vehicle control (0.1% DMSO) for 48 h at 37° C., 5% CO2 before washing once with PBS and lysing with 80 μl lysis buffer (25 mM Tris/HCl, 3 mM EDTA, 3 mM EGTA, 50 mM NaF, 2 mM sodium orthovanadate, 0.27 M sucrose, 10 mM β-glycerophosphate, 5 mM sodium pyrophosphate, 0.5% TritonX-100, pH 6.8) on ice.
(§2) Samples were boiled for 10 min at 95° C. and then frozen at −20° C. until ready for use.
(§3) The blot was stained with Ponceau S (P7170, Sigma) and cut according to appropriate molecular weight markers.
(§4) Membranes were blocked for 1 hour at room temp in 5% Marvel (w/v) in phosphate-buffered saline containing 0.05% Tween™ 20 (PBS/Tween). Blots were then incubated with anti-ERα (SP1) rabbit monoclonal antibody (Thermofisher) diluted 1:1000 at 4° C. overnight (with gentle shaking) followed by several washes with PBS/Tween. […] All antibodies were made up in 5% Marvel (w/v) in PBS/Tween.
(§5) Down-regulation of the ERα receptor was normalised to the vehicle control (0% down-regulation) and the 100 nM fulvestrant control (100% down-regulation) run within the same gel.

hERG potassium channel = hERG potassium channel (Homo sapiens (Human), UniProt Q12809); assay: hERG binding assay (automated patch clamp, CHO cells); format: cell-based; conditions: CHO cell line, Nanion Syncropatch 384PE
Chain of hERG potassium channel (Q12809 whole entry): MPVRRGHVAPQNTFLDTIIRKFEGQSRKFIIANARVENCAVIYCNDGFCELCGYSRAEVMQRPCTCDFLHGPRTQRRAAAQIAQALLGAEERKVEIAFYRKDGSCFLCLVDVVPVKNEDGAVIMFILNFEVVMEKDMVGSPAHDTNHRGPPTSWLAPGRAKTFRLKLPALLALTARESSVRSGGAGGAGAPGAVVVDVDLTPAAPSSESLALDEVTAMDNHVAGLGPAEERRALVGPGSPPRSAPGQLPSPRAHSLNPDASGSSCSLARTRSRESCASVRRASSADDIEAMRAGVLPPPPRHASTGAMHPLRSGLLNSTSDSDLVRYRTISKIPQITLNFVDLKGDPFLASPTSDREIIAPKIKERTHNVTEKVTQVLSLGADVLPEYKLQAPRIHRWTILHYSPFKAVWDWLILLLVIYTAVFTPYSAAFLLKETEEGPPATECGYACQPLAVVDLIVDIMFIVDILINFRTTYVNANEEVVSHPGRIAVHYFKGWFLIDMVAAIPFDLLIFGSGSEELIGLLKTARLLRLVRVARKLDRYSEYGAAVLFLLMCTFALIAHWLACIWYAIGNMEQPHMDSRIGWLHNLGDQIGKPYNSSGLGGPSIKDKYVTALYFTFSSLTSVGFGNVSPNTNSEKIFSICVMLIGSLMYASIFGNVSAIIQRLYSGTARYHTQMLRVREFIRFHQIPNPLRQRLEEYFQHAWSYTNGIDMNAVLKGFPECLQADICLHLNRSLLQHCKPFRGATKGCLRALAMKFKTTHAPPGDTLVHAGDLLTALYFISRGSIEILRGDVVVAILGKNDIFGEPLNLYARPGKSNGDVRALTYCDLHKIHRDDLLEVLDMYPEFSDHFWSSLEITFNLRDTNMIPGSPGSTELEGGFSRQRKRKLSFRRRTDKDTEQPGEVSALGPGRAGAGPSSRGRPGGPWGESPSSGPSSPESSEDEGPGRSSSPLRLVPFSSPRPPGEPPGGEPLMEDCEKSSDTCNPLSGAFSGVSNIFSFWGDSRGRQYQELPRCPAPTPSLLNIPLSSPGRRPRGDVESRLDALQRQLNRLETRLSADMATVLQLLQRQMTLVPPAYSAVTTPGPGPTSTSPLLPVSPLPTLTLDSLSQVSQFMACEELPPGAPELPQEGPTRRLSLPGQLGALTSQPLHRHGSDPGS
Experimental: Reagent preparations include: • 1.
Cell preparations: • 1. If using cell culture; cells to be incubated at 30° C. for approximately 4-6 days prior to being used. Day of assay lift cells using accutase and re-suspend in 20 ml cell buffer to a density of 0.8 to 1e6 cells/ml. • 2. If using assay ready cryovials; rapidly thaw two cryovials at 37° C. and slowly pipette into 23 ml external solution • 3.
All compounds were acoustically dispensed in quadruplicate using a Labcyte Echo. […] Fill 384 well medium resistance 4 hole chips with 40 μl external buffer and perfuse internal buffer to the underside of plate. • 2. Dispense 20 μl of cells into each well of the chip followed by 20 μl of seal enhancer. • 3. Remove 40 μl of reagent from each well to the wash station, leaving a residual volume of 40 μl • 4. Dispense 40 μl of reference buffer with a removal step of 40 μl after 3 min, repeat this step. • 5.
hERG-mediated currents were elicited using a voltage step protocol consisting of acontinuous holding voltage of −80 mV, with a 500 ms step to 60 mV followed by a 500 ms step to −40 mV every 15 seconds. hERG current magnitude was measured automatically from the leak-subtracted traces by the Nanion software by taking the peak of the hERG “tail” current at −40 mV every 15 seconds and taking the last three of these responses for each concentration to generate the concentration-effect curve.
Calculation of results is performed using APC package within Genedata. For the routine normalization of well data with Neutral and Inhibitor control well groups as reference, GeneData Assay Analyzer uses the following equation to normalize the signal values to the desired signal range:
[formula] • x is the measured raw signal value of a well • is the median of the measured signal values for the Central Reference (Neutral) wells on a plate • is the median of the measured signal values for the Scale Reference (Inhibitor) wells on a plate • CR is the desired median normalized value for the Central Reference (Neutral) • SR is the desired median normalized value for the Scale Reference (Inhibitor)

[6] = target: T1, Estrogen Receptor (ERα) in MCF-7 cells (Homo sapiens (Human), UniProt P03372); assay: Western blotting assay, ER down-regulation in MCF-7; format: cell-based; conditions: 100 nM compound, 48 h, normalised to 100 nM fulvestrant
T1 sequence (P03372 whole entry): as the sequence (P03372 whole entry) above
Experimental: as §1, §2, §3, §4, §5

[7] = target: T1, Estrogen Receptor (ERα) in MCF-7 cells; assay: MCF-7 ER down-regulation assay (immuno-fluorescence); format: cell-based
Summary of the method: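 Compounds dispensed acoustically from DMSO stocks onto MCF-7 cells; cells fixed 20 min at room temperature, then automated immunostaining for ERα with overnight incubation at 4° C. Read-out is mean total ER fluorescence intensity normalized to cell number (intensity per cell), with curve fitting for concentration-response values.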

[8] = 1-octanol/aqueous buffer, pH 7.4, pH 7.4, 1-octanol/aqueous buffer
[9] = pH 7.4, 1-octanol/aqueous buffer

Chain of recombinant human Estrogen Receptor alpha ligand binding domain (ER alpha-LBD (GST)) (P03372 307-554): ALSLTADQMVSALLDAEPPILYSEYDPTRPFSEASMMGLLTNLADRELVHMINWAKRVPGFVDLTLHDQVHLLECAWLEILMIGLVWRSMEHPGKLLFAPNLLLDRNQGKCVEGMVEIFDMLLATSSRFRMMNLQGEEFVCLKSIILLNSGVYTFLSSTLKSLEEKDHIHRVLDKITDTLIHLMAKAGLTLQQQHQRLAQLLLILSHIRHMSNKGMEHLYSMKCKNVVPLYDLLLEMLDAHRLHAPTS

Compound | IC50 [1] [nM] | Human plasma protein binding (% free) [2] [% free] | solubility at 24 h [3] [µM] | logD [4, 8] | CAMA1 Western % ER deg vs Fv [5] [%] | IC50 (hERG potassium channel) [nM] | MCF7 Western % ER deg vs Fv [6] [%] | IC50 [7] [nM] | logD [4, 9]
C[C@@H]1Cc2c(ccc3[nH]ncc23)[C@@H](c2c(F)cc(NC3CN(CCCF)C3)cc2F)N1CC(F)(F)CO [Example 5, 3-((6S,8R)-6-(2,6-difluoro-4-((1-(3-fluoropropyl)azetidin-3-yl)amino)phenyl)-8-methyl-3,6,8,9-tetrahydro-7H-pyrazolo[4,3-f]isoquinolin-7-yl)-2,2-difluoropropan-1-ol] | 2.2 | 8.6 | 297 (≈ 155 µg/mL) | 3.3 | 109 | 13000 | 99 | 0.077 | 
COc1cc(OC2CN(CCCF)C2)ccc1[C@@H]1c2ccc3[nH]ncc3c2C[C@@H](C)N1CC1(F)CC1 [Example 7, (6S,8R)-7-((1-fluorocyclopropyl)methyl)-6-(4-((1-(3-fluoropropyl)azetidin-3-yl)oxy)-2-methoxyphenyl)-8-methyl-6,7,8,9-tetrahydro-3H-pyrazolo[4,3-f]isoquinoline] | 8.4 | 11 | 470 (≈ 233 µg/mL) |  | 90 |  | 90 | 0.4 | 3.5
C[C@@H]1Cc2c(ccc3[nH]ncc23)[C@@H](c2c(F)cc(NC3CN(CCCF)C3)cc2F)N1CC(F)(F)F [Example 8, N-(3,5-difluoro-4-((6S,8R)-8-methyl-7-(2,2,2-trifluoroethyl)-6,7,8,9-tetrahydro-3H-pyrazolo[4,3-f]isoquinolin-6-yl)phenyl)-1-(3-fluoropropyl)azetidin-3-amine] | 2 | 0.99 | 90 (≈ 46 µg/mL) | 4.4 | 100 |  | 101 | 0.055 | 
COc1cc(NC2CN(CCCF)C2)ncc1[C@@H]1c2ccc3[nH]ncc3c2C[C@@H](C)N1CC1(F)CC1 [Example 9, 5-((6S,8R)-7-((1-fluorocyclopropyl)methyl)-8-methyl-6,7,8,9-tetrahydro-3H-pyrazolo[4,3-f]isoquinolin-6-yl)-N-(1-(3-fluoropropyl)azetidin-3-yl)-4-methoxypyridin-2-amine] | 360 | 21 | > 1000 | 1 | 25 |  | −13 | > 300 | 
C[C@@H]1Cc2c(ccc3[nH]ncc23)[C@@H](c2ccc(OC3CN(CCCF)C3)cn2)N1CC(F)F [Example 26, (6S,8R)-7-(2,2-difluoroethyl)-6-(5-((1-(3-fluoropropyl)azetidin-3-yl)oxy)pyridin-2-yl)-8-methyl-6,7,8,9-tetrahydro-3H-pyrazolo[4,3-f]isoquinoline] | 6.7 | 22 | 258 (≈ 119 µg/mL) | 3 | 97 |  | 97 | 0.52 | 
C[C@@H]1Cc2c(ccc3[nH]ncc23)[C@@H](c2ccc(N(C)C3CN(CCCF)C3)cn2)N1CC(F)(F)F [Example 34, N-(1-(3-fluoropropyl)azetidin-3-yl)-N-methyl-6-((6S,8R)-8-methyl-7-(2,2,2-trifluoroethyl)-6,7,8,9-tetrahydro-3H-pyrazolo[4,3-f]isoquinolin-6-yl)pyridin-3-amine] | 1.9 | 15 | 471 (≈ 231 µg/mL) |  | 82 | 7700 | 85 | 0.22 | 3.2
C[C@@H]1Cc2c(ccc3[nH]ncc23)[C@@H](c2cnc(NC3CN(CCCF)C3)cn2)N1CC(F)(F)F [Example 42, N-(1-(3-fluoropropyl)azetidin-3-yl)-5-((6S,8R)-8-methyl-7-(2,2,2-trifluoroethyl)-6,7,8,9-tetrahydro-3H-pyrazolo[4,3-f]isoquinolin-6-yl)pyrazin-2-amine] | 3.8 |  | 712 (≈ 340 µg/mL) | 2.4 | 79 | 7900 | 92 | 0.28 | 
C[C@@H]1Cc2c(ccc3[nH]ncc23)[C@@H](c2c(F)cc(NC3CN(CCCF)C3)cc2F)N1CC(F)F [Example 49, N-(4-((6S,8R)-7-(2,2-difluoroethyl)-8-methyl-6,7,8,9-tetrahydro-3H-pyrazolo[4,3-f]isoquinolin-6-yl)-3,5-difluorophenyl)-1-(3-fluoropropyl)azetidin-3-amine] | 1.5 |  | 163 (≈ 80.4 µg/mL) | 3.8 | 99 | 8200 | 98 | 0.075 | 
COc1cc(NC2CN(CCCF)C2)c(F)cc1[C@@H]1c2ccc3[nH]ncc3c2C[C@@H](C)N1CC1(F)CC1 [Example 53, N-(2-fluoro-4-((6S,8R)-7-((1-fluorocyclopropyl)methyl)-8-methyl-6,7,8,9-tetrahydro-3H-pyrazolo[4,3-f]isoquinolin-6-yl)-5-methoxyphenyl)-1-(3-fluoropropyl)azetidin-3-amine] | 5.7 | 11 | 691 (≈ 355 µg/mL) | 3.2 | 46 |  | 81 | 0.26 | 
COc1cc(NC2CN(CCC(F)(F)F)C2)ccc1[C@@H]1c2ccc3[nH]ncc3c2C[C@@H](C)N1CC1(F)CC1 [Example 56, N-(4-((6S,8R)-7-((1-fluorocyclopropyl)methyl)-8-methyl-6,7,8,9-tetrahydro-3H-pyrazolo[4,3-f]isoquinolin-6-yl)-3-methoxyphenyl)-1-(3,3,3-trifluoropropyl)azetidin-3-amine] | 8.2 |  | 377 (≈ 200 µg/mL) | 3.6 | 52 |  | 61 | 0.58 | 
